# Assay results: US9051342B2 (priority 2004, dated 2015)
row,SMILES,melting point [°C]
1,"O=C(O)c1cccc(-n2cc(-c3cccc(Cl)c3)cn2)c1 [Compound 210, 3-[4-(3-Chloro-phenyl)-pyrazol-1-yl]-benzoic acid]",178 to 180
2,"O=C(O)c1ccc(-n2cc(-c3cccc(Cl)c3)cn2)cc1 [Compound 211, 4-[4-(3-Chloro-phenyl)-pyrazol-1-yl]-benzoic acid]",252 to 255
3,"O=C(O)c1cccc(-n2cc(-c3cccc(F)c3)cn2)c1 [Compound 213, 3-[4-(3-Fluoro-phenyl)-pyrazol-1-yl]-benzoic acid]",228 to 230
4,O=C(O)c1ccc(-n2cc(-c3cccc(OC(F)F)c3)cn2)cc1 [Compound 214],220 to 222
5,"O=C(O)c1ccc(-n2cc(-c3cccc(Oc4ccccc4)c3)cn2)cc1 [Compound 215, 4-[4-(3-Phenoxy-phenyl)-pyrazol-1-yl]-benzoic acid]",211 to 213
6,"O=C(O)c1cccc(-n2cc(-c3cccc(Oc4ccccc4)c3)cn2)c1 [Compound 216, 3-[4-(3-Phenoxy-phenyl)-pyrazol-1-yl]-benzoic acid]",164 to 165
7,"O=C(O)c1ccc(-c2ccn(-c3ccc(OC(F)(F)F)cc3)n2)cc1 [Compound 218, 4-[1-(4-Trifluoromethoxy-phenyl)-1H-pyrazol-3-yl]-benzoic acid]",214 to 215
8,"COc1cccc(-c2ccn(-c3cccc(C(=O)O)c3)n2)c1 [Compound 220, 3-[3-(3-Methoxy-phenyl)-pyrazol-1-yl]-benzoic acid]",179 to 180
9,"O=C(O)c1ccc(-n2ccc(-c3ccccc3)n2)cc1 [Compound 222, 4-(3-Phenyl-pyrazol-1-yl)-benzoic acid]",244 to 245
10,"O=C(O)c1cccc(-c2cnn(-c3cccc(OC(F)(F)F)c3)c2)c1 [Compound 223, 3-[1-(3-Trifluoromethoxy-phenyl)-1H-pyrazol-4-yl]-benzoic acid]",143 to 145
11,"O=C(O)c1cccc(-c2cnn(-c3ccc4c(c3)OCCO4)c2)c1 [Compound 225, 3-[1-(2,3-Dihydro-benzo[1,4]dioxin-6-yl)-1H-pyrazol-4-yl]-benzoic acid]",201 to 203
12,"O=C(O)c1ccc(-c2cnn(-c3ccc4c(c3)OCCO4)c2)cc1 [Compound 226, 4-[1-(2,3-Dihydro-benzo[1,4]dioxin-6-yl)-1H-pyrazol-4-yl]-benzoic acid]",238 to 240
13,"CC(C)c1ccc(-n2cc(-c3cccc(C(=O)O)c3)cn2)cc1 [Compound 228, 3-[1-(4-Isopropyl-phenyl)-1H-pyrazol-4-yl]-benzoic acid]",212 to 215
14,"Cc1ccc(-n2cc(-c3cccc(C(=O)O)c3)cn2)cc1Cl [Compound 230, 3-[1-(3-Chloro-4-methyl-phenyl)-1H-pyrazol-4-yl]-benzoic acid]",209 to 211
15,"O=C(O)c1cccc(-c2cnn(-c3ccc(Cl)c(Cl)c3)c2)c1 [Compound 232, 3-[1-(3,4-Dichloro-phenyl)-1H-pyrazol-4-yl]-benzoic acid]",135 to 138
16,"O=C(O)c1cccc(-c2cnn(-c3ccc(C(F)(F)F)cc3)c2)c1 [Compound 235, 3-[1-(4-Trifluoromethyl-phenyl)-1H-pyrazol-4-yl]-benzoic acid]",218 to 220
17,"O=C(O)c1cccc(-c2cnn(-c3ccc4c(c3)OCO4)c2)c1 [Compound 239, 3-(1-Benzo[1,3]dioxol-5-yl-1H-pyrazol-4-yl)-benzoic acid]",221 to 223
18,"O=C(O)c1cccc(-c2ccn(-c3cccc(OCc4ccccc4)c3)c2)c1 [Compound 246, 3-[1-(3-Benzyloxy-phenyl)-1H-pyrrol-3-yl]-benzoic acid]",142 to 144
19,"COc1ccc2c(c1)-c1cn(-c3cccc(C(=O)O)c3)nc1CC2 [Compound 253, 3-(8-Methoxy-4,5-dihydro-benzo[e]indazol-2-yl)-benzoic acid]",239 to 241
20,"COc1ccc2c(c1)-c1cnn(-c3cccc(C(=O)O)c3)c1CC2 [Compound 254, 3-(8-Methoxy-4,5-dihydro-benzo[e]indazol-3-yl)-benzoic acid]",269 to 271
21,"CC(=O)c1ccc(-n2ccc(-c3cccc(C(=O)O)c3)n2)cc1 [Compound 255, 3-[1-(4-Acetyl-phenyl)-1H-pyrazol-3-yl]-benzoic acid]",215 to 216
22,"O=C(O)c1cccc(-c2ccn(-c3cccs3)n2)c1 [Compound 258, 3-(1-Thiophen-2-yl-1H-pyrazol-3-yl)-benzoic acid]",198 to 199
23,"O=C(O)c1ccc(-c2ccn(-c3cccs3)n2)cc1 [Compound 259, 4-(1-Thiophen-2-yl-1H-pyrazol-3-yl)-benzoic acid]",200 to 202
24,"O=C(O)c1cccc(-c2ccn(-c3cccnc3)n2)c1 [Compound 260, 3-(1-Pyridin-3-yl-1H-pyrazol-3-yl)-benzoic acid]",235 to 236
25,"O=C(O)c1ccc(-c2ccn(-c3cccnc3)n2)cc1 [Compound 261, 4-(1-Pyridin-3-yl-1H-pyrazol-3-yl)-benzoic acid]",280 to 282
26,"O=C(O)c1cccc(-n2cnc(-c3ccccc3)c2)c1 [Compound 262, 3-(4-Phenyl-imidazol-1-yl)-benzoic acid]",277 to 279
27,"O=C(O)c1ccc(-n2cnc(-c3ccccc3)c2)cc1 [Compound 263, 4-(4-Phenyl-imidazol-1-yl)-benzoic acid]",263 to 265
28,"O=C(O)c1ccc(-n2cc(-c3ccccc3F)nn2)cc1 [Compound 264, 4-[4-(2-Fluoro-phenyl)-[1,2,3]triazol-1-yl]-benzoic acid]",292 to 294

# Other lines, results leading:
row,melting point [°C],SMILES
1,261 to 265,"O=C(O)c1ccc(-n2cc(-c3cccc(F)c3)cn2)cc1 [Compound 212, 4-[4-(3-Fluoro-phenyl)-pyrazol-1-yl]-benzoic acid]"
2,252 to 253,"COc1ccc(-n2ccc(-c3ccc(C(=O)O)cc3)n2)cc1 [Compound 217, 4-[1-(4-Methoxy-phenyl)-1H-pyrazol-3-yl]-benzoic acid]"
3,268 to 270,"COc1ccc(-c2ccn(-c3ccc(C(=O)O)cc3)n2)cc1 [Compound 219, 4-[3-(4-Methoxy-phenyl)-pyrazol-1-yl]-benzoic acid]"
4,200 to 202,"COc1cccc(-c2ccn(-c3ccc(C(=O)O)cc3)n2)c1 [Compound 221, 4-[3-(3-Methoxy-phenyl)-pyrazol-1-yl]-benzoic acid]"
5,230 to 231,"O=C(O)c1ccc(-c2cnn(-c3cccc(OC(F)(F)F)c3)c2)cc1 [Compound 224, 4-[1-(3-Trifluoromethoxy-phenyl)-1H-pyrazol-4-yl]-benzoic acid]"
6,266 to 268,"O=C(O)c1ccc(-c2cnn(-c3ccc4c(c3)OCO4)c2)cc1 [Compound 227, 4-(1-Benzo[1,3]dioxol-5-yl-1H-pyrazol-4-yl)-benzoic acid]"
7,215 to 218,"CC(C)c1ccc(-n2cc(-c3ccc(C(=O)O)cc3)cn2)cc1 [Compound 229, 4-[1-(4-Isopropyl-phenyl)-1H-pyrazol-4-yl]-benzoic acid]"
8,285 to 288,"Cc1ccc(-n2cc(-c3ccc(C(=O)O)cc3)cn2)cc1Cl [Compound 231, 4-[1-(3-Chloro-4-methyl-phenyl)-1H-pyrazol-4-yl]-benzoic acid]"
9,286 to 289,"O=C(O)c1ccc(-c2cnn(-c3ccc(Cl)c(Cl)c3)c2)cc1 [Compound 233, 4-[1-(3,4-Dichloro-phenyl)-1H-pyrazol-4-yl]-benzoic acid]"
10,259 to 261,"O=C(O)c1ccc(-c2cnn(-c3ccc(Cl)cc3)c2)cc1 [Compound 234, 4-[1-(4-Chloro-phenyl)-1H-pyrazol-4-yl]-benzoic acid]"
11,271 to 273,"O=C(O)c1ccc(-c2cnn(-c3ccc(C(F)(F)F)cc3)c2)cc1 [Compound 236, 4-[1-(4-Trifluoromethyl-phenyl)-1H-pyrazol-4-yl]-benzoic acid]"
12,254 to 256,"Cc1ccc(-n2cc(-c3ccc(C(=O)O)cc3)cn2)cc1C [Compound 238, 4-[1-(3,4-Dimethyl-phenyl)-1H-pyrazol-4-yl]-benzoic acid]"
13,161 to 163,"Cc1ccccc1-n1ccc(-c2cccc(C(=O)O)c2)c1 [Compound 240, 3-(1-o-Tolyl-1H-pyrrol-3-yl)-benzoic acid]"
14,205 to 208,"Cc1ccc(-n2ccc(-c3cccc(C(=O)O)c3)c2)cc1F [Compound 241, 3-[1-(3-Fluoro-4-methyl-phenyl)-1H-pyrrol-3-yl]-benzoic acid]"
15,193 to 194,"O=C(O)c1cccc(-c2ccn(-c3cc(F)ccc3F)c2)c1 [Compound 242, 3-[1-(2,5-Difluoro-phenyl)-1H-pyrrol-3-yl]-benzoic acid]"
16,199 to 201,"O=C(O)c1ccc(-c2ccn(-c3cccc(Cl)c3)c2)cc1 [Compound 243, 4-[1-(3-Chloro-phenyl)-1H-pyrrol-3-yl]-benzoic acid]"
17,264 to 268,"Cc1ccc(-n2ccc(-c3ccc(C(=O)O)cc3)c2)cc1F [Compound 244, 4-[1-(3-Fluoro-4-methyl-phenyl)-1H-pyrrol-3-yl]-benzoic acid]"
18,215 to 218,"O=C(O)c1ccc(-c2ccn(-c3cc(F)ccc3F)c2)cc1 [Compound 245, 4-[1-(2,5-Difluoro-phenyl)-1H-pyrrol-3-yl]-benzoic acid]"
19,177 to 180,"O=C(O)c1cccc(-c2ccn(-c3ccc4c(c3)OCO4)c2)c1 [Compound 247, 3-(1-Benzo[1,3]dioxol-5-yl-1H-pyrrol-3-yl)-benzoic acid]"
20,278 to 279,"CC(=O)c1ccc(-n2ccc(-c3ccc(C(=O)O)cc3)n2)cc1 [Compound 256, 4-[1-(4-Acetyl-phenyl)-1H-pyrazol-3-yl]-benzoic acid]"
21,281 to 282,"O=C(O)c1ccc(-c2ccn(-c3ccc4[nH]ccc4c3)n2)cc1 [Compound 257, 4-[1-(1H-Indol-5-yl)-1H-pyrazol-3-yl]-benzoic acid]"
22,327 to 328,"O=C(O)c1ccc(-n2cc(-c3cccc(F)c3)nn2)cc1 [Compound 265, 4-[4-(3-Fluoro-phenyl)-[1,2,3]triazol-1-yl]-benzoic acid]"
